Values joined by “and” are separate entries in the source; they are usually repeats but may differ in a detail not shown here. Equal entries are not always repeated. Records with an inconclusive call do not appear.
Tested on: BDF1 mice, s.c. Lewis lung carcinoma, T/C %
Experiment: NCI In Vivo Anticancer Drug Screen. Data for tumor model Lewis Lung Carcinoma (subcutaneous) in B6D2F1 (BDF1) mice
How it was run: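 First, mice carry a transplantable tumor. Next, groups receive either compound or vehicle. Finally, survival or tumor dimensions in the dosed animals are divided by the corresponding control figure.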

[1] = endpoint: median survival time, dose: 10.0 mg/kg/injection, schedule: Q01DX009 (ip), vehicle: saline, higher = longer survival
[2] = endpoint: median survival time, dose: 20.0 mg/kg/injection, schedule: Q01DX009 (ip), vehicle: saline, higher = longer survival

## O=P1(N(CCCl)CCCl)NCCCO1 (stereo not drawn)
endpoint: mean survival time, dose: 100.0 mg/kg/injection, schedule: Q08DX002 (ip), vehicle: saline, higher = longer survival
  T/C: 188 % of control
endpoint: mean survival time, dose: 300.0 mg/kg/injection, schedule: Q08DX002 (ip), vehicle: saline, higher = longer survival
  T/C: 117 % of control
endpoint: mean tumor weight (est.), dose: 65.0 mg/kg/injection, schedule: Q01DX009 (ip), vehicle: saline, higher = larger tumour
  T/C: 3 % of control
endpoint: mean tumor weight (est.), dose: 108.0 mg/kg/injection, schedule: Q01DX001 (ip), vehicle: saline, higher = larger tumour
  T/C: 19 % of control and 37 % of control
endpoint: mean tumor weight (est.), dose: 300.0 mg/kg/injection, schedule: Q01DX001 (ip), vehicle: saline, higher = larger tumour
  T/C: 15 % of control
endpoint: mean tumor weight, dose: 6.25 mg/kg/injection, schedule: Q01DX011 (ip), vehicle: saline, higher = larger tumour
  T/C: 70 % of control
endpoint: mean tumor weight, dose: 12.0 mg/kg/injection, schedule: Q01DX011 (ip), vehicle: saline, higher = larger tumour
  T/C: 55 % of control
endpoint: mean tumor weight, dose: 12.5 mg/kg/injection, schedule: Q01DX011 (ip), vehicle: saline, higher = larger tumour
  T/C: 74 % of control
endpoint: mean tumor weight, dose: 17.0 mg/kg/injection, schedule: Q01DX011 (ip), vehicle: saline, higher = larger tumour
  T/C: 43 % of control
endpoint: mean tumor weight, dose: 22.5 mg/kg/injection, schedule: Q01DX011 (ip), vehicle: saline, higher = larger tumour
  T/C: 19 % of control and 40 % of control
endpoint: mean tumor weight, dose: 25.0 mg/kg/injection, schedule: Q01DX011 (ip), vehicle: saline, higher = larger tumour
  T/C: 3 % of control and 5 % of control and 12 % of control
endpoint: mean tumor weight, dose: 45.0 mg/kg/injection, schedule: Q01DX011 (ip), vehicle: saline, higher = larger tumour
  T/C: 2 % of control and 11 % of control
endpoint: median survival time, dose: 5.0 mg/kg/injection, schedule: Q01DX011 (ip), vehicle: saline, higher = longer survival
  T/C: 107 % of control
endpoint: median survival time, dose: 10.0 mg/kg/injection, schedule: Q01DX001 (ip), vehicle: saline, higher = longer survival
  T/C: 100 % of control
endpoint: median survival time, dose: 10.0 mg/kg/injection, schedule: Q01DX005 (ip), vehicle: saline, higher = longer survival
  T/C: 153 % of control and 160 % of control
[1]
  T/C: 90 % of control
endpoint: median survival time, dose: 10.0 mg/kg/injection, schedule: Q01DX011 (ip), vehicle: saline, higher = longer survival
  T/C: 89 % of control
endpoint: median survival time, dose: 20.0 mg/kg/injection, schedule: Q01DX001 (ip), vehicle: saline, higher = longer survival
  T/C: 113 % of control
endpoint: median survival time, dose: 20.0 mg/kg/injection, schedule: Q01DX005 (ip), vehicle: saline, higher = longer survival
  T/C: 113 % of control
[2]
  T/C: 104 % of control
endpoint: median survival time, dose: 20.0 mg/kg/injection, schedule: Q01DX011 (ip), vehicle: saline, higher = longer survival
  T/C: 89 % of control
endpoint: median survival time, dose: 23.0 mg/kg/injection, schedule: Q01DX009 (ip), vehicle: saline, higher = longer survival
  T/C: 121 % of control and 124 % of control
endpoint: median survival time, dose: 25.0 mg/kg/injection, schedule: Q01DX001 (ip), vehicle: saline, higher = longer survival
  T/C: 98 % of control and 101 % of control
endpoint: median survival time, dose: 25.0 mg/kg/injection, schedule: Q01DX004 (ip), vehicle: saline, higher = longer survival
  T/C: 154 % of control
endpoint: median survival time, dose: 26.0 mg/kg/injection, schedule: Q01DX001 (ip), vehicle: saline, higher = longer survival
  T/C: 94 % of control and 95 % of control
endpoint: median survival time, dose: 39.0 mg/kg/injection, schedule: Q01DX009 (ip), vehicle: saline, higher = longer survival
  T/C: 91 % of control
endpoint: median survival time, dose: 40.0 mg/kg/injection, schedule: Q01DX001 (ip), vehicle: saline, higher = longer survival
  T/C: 88 % of control
endpoint: median survival time, dose: 40.0 mg/kg/injection, schedule: Q01DX009 (ip), vehicle: saline, higher = longer survival
  T/C: 222 % of control
endpoint: median survival time, dose: 43.0 mg/kg/injection, schedule: Q01DX001 (ip), vehicle: saline, higher = longer survival
  T/C: 112 % of control and 117 % of control
endpoint: median survival time, dose: 44.0 mg/kg/injection, schedule: Q01DX005 (ip), vehicle: saline, higher = longer survival
  T/C: 184 % of control and 233 % of control
endpoint: median survival time, dose: 44.4 mg/kg/injection, schedule: Q04DX003 (ip), vehicle: saline, higher = longer survival
  T/C: 105 % of control and 224 % of control
endpoint: median survival time, dose: 50.0 mg/kg/injection, schedule: Q01DX001 (ip), vehicle: saline, higher = longer survival
  T/C: 112 % of control and 117 % of control
endpoint: median survival time, dose: 50.0 mg/kg/injection, schedule: Q01DX001 (ip), vehicle: water, higher = longer survival
  T/C: 118 % of control
endpoint: median survival time, dose: 50.0 mg/kg/injection, schedule: Q01DX004 (ip), vehicle: saline, higher = longer survival
  T/C: 225 % of control
endpoint: median survival time, dose: 50.0 mg/kg/injection, schedule: Q01DX005 (ip), vehicle: saline, higher = longer survival
  T/C: 158 % of control
endpoint: median survival time, dose: 50.0 mg/kg/injection, schedule: Q04DX003 (sc), vehicle: saline, higher = longer survival
  T/C: 208 % of control and 210 % of control
endpoint: median survival time, dose: 66.7 mg/kg/injection, schedule: Q04DX003 (ip), vehicle: saline, higher = longer survival
  T/C: 167 % of control and 233 % of control
endpoint: median survival time, dose: 67.0 mg/kg/injection, schedule: Q01DX005 (ip), vehicle: saline, higher = longer survival
  T/C: 220 % of control
endpoint: median survival time, dose: 70.0 mg/kg/injection, schedule: Q01DX001 (ip), vehicle: saline, higher = longer survival
  T/C: 108 % of control and 112 % of control
endpoint: median survival time, dose: 72.0 mg/kg/injection, schedule: Q01DX001 (ip), vehicle: saline, higher = longer survival
  T/C: 117 % of control
endpoint: median survival time, dose: 80.0 mg/kg/injection, schedule: Q01DX009 (ip), vehicle: saline, higher = longer survival
  T/C: 100 % of control
endpoint: median survival time, dose: 100.0 mg/kg/injection, schedule: Q01DX001 (ip), vehicle: water, higher = longer survival
  T/C: 190 % of control
endpoint: median survival time, dose: 100.0 mg/kg/injection, schedule: Q01DX005 (ip), vehicle: saline, higher = longer survival
  T/C: 207 % of control
endpoint: median survival time, dose: 100.0 mg/kg/injection, schedule: Q04DX003 (ip), vehicle: saline, higher = longer survival
  T/C: 192 % of control and 233 % of control
endpoint: median survival time, dose: 100.0 mg/kg/injection, schedule: Q08DX002 (ip), vehicle: saline, higher = longer survival
  T/C: 208 % of control
endpoint: median survival time, dose: 100.0 mg/kg/injection, schedule: Q11DX002 (ip), vehicle: saline, higher = longer survival
  T/C: 163 % of control
endpoint: median survival time, dose: 150.0 mg/kg/injection, schedule: Q04DX003 (ip), vehicle: saline, higher = longer survival
  T/C: 233 % of control
endpoint: median survival time, dose: 150.0 mg/kg/injection, schedule: Q07DX002 (ip), vehicle: saline, higher = longer survival
  T/C: 233 % of control
endpoint: median survival time, dose: 150.0 mg/kg/injection, schedule: Q07DX004 (ip), vehicle: saline, higher = longer survival
  T/C: 221 % of control
endpoint: median survival time, dose: 150.0 mg/kg/injection, schedule: Q11DX002 (ip), vehicle: saline, higher = longer survival
  T/C: 150 % of control and 165 % of control
endpoint: median survival time, dose: 200.0 mg/kg/injection, schedule: Q04DX003 (sc), vehicle: saline, higher = longer survival
  T/C: 85 % of control
endpoint: median survival time, dose: 225.0 mg/kg/injection, schedule: Q01DX001 (ip), vehicle: saline, higher = longer survival
  T/C: 153 % of control
endpoint: median survival time, dose: 225.0 mg/kg/injection, schedule: Q07DX002 (ip), vehicle: saline, higher = longer survival
  T/C: 173 % of control
endpoint: median survival time, dose: 225.0 mg/kg/injection, schedule: Q09DX002 (ip), vehicle: saline, higher = longer survival
  T/C: 183 % of control
endpoint: median survival time, dose: 225.0 mg/kg/injection, schedule: Q11DX002 (ip), vehicle: saline, higher = longer survival
  T/C: 166 % of control and 189 % of control
endpoint: median survival time, dose: 230.0 mg/kg/injection, schedule: Q01DX001 (ip), vehicle: saline, higher = longer survival
  T/C: 154 % of control
endpoint: median survival time, dose: 300.0 mg/kg/injection, schedule: Q07DX002 (ip), vehicle: saline, higher = longer survival
  T/C: 173 % of control
endpoint: median survival time, dose: 300.0 mg/kg/injection, schedule: Q08DX002 (ip), vehicle: saline, higher = longer survival
  T/C: 100 % of control
endpoint: median survival time, dose: 333.0 mg/kg/injection, schedule: Q01DX001 (ip), vehicle: saline, higher = longer survival
  T/C: 157 % of control and 193 % of control
endpoint: median survival time, dose: 500.0 mg/kg/injection, schedule: Q01DX001 (ip), vehicle: saline, higher = longer survival
  T/C: 72 % of control
endpoint: median survival time, dose: 556.0 mg/kg/injection, schedule: Q01DX001 (ip), vehicle: saline, higher = longer survival
  T/C: 47 % of control
endpoint: median tumor weight (est.), dose: 25.0 mg/kg/injection, schedule: Q01DX009 (ip), vehicle: saline, higher = larger tumour
  T/C: 50 % of control
endpoint: median tumor weight (est.), dose: 50.0 mg/kg/injection, schedule: Q01DX009 (ip), vehicle: saline, higher = larger tumour
  T/C: 11 % of control and 19 % of control
endpoint: median tumor weight (est.), dose: 75.0 mg/kg/injection, schedule: Q01DX001 (ip), vehicle: saline, higher = larger tumour
  T/C: 76 % of control
endpoint: median tumor weight (est.), dose: 103.0 mg/kg/injection, schedule: Q01DX001 (ip), vehicle: saline, higher = larger tumour
  T/C: 38 % of control
endpoint: median tumor weight (est.), dose: 150.0 mg/kg/injection, schedule: Q01DX001 (ip), vehicle: saline, higher = larger tumour
  T/C: 34 % of control
endpoint: median tumor weight (est.), dose: 209.0 mg/kg/injection, schedule: Q01DX001 (ip), vehicle: saline, higher = larger tumour
  T/C: 16 % of control
endpoint: median tumor weight (est.), dose: 300.0 mg/kg/injection, schedule: Q01DX001 (ip), vehicle: saline, higher = larger tumour
  T/C: 2 % of control
endpoint: median tumor weight (est.), dose: 312.0 mg/kg/injection, schedule: Q01DX001 (ip), vehicle: saline, higher = larger tumour
  T/C: 7 % of control

## COc1ccc2c(Cc3ccccc3)cncc2c1O
endpoint: median survival time, dose: 12.5 mg/kg/injection, schedule: Q01DX009 (ip), vehicle: Klucel (hydroxypropylcellulose) (HPC), higher = longer survival
  T/C: 90 % of control
endpoint: median survival time, dose: 25.0 mg/kg/injection, schedule: Q01DX009 (ip), vehicle: Klucel (hydroxypropylcellulose) (HPC), higher = longer survival
  T/C: 101 % of control
endpoint: median survival time, dose: 50.0 mg/kg/injection, schedule: Q01DX009 (ip), vehicle: Klucel (hydroxypropylcellulose) (HPC), higher = longer survival
  T/C: 91 % of control
endpoint: median survival time, dose: 100.0 mg/kg/injection, schedule: Q01DX009 (ip), vehicle: Klucel (hydroxypropylcellulose) (HPC), higher = longer survival
  T/C: 101 % of control

## CCN(CC)C(=S)S.[Te]
endpoint: mean tumor weight, dose: 50.0 mg/kg/injection, schedule: Q01DX011 (ip), vehicle: carboxymethylcellulose (CMC), higher = larger tumour
  T/C: 24 % of control and 36 % of control
endpoint: mean tumor weight, dose: 200.0 mg/kg/injection, schedule: Q01DX011 (ip), vehicle: carboxymethylcellulose (CMC), higher = larger tumour
  T/C: 10 % of control

## CS(=O)(=O)OCCCNCCCOS(C)(=O)=O
endpoint: mean tumor weight, dose: 10.0 mg/kg/injection, schedule: Q01DX011 (ip), vehicle: saline, higher = larger tumour
  T/C: 63 % of control
endpoint: mean tumor weight, dose: 20.0 mg/kg/injection, schedule: Q01DX011 (ip), vehicle: saline, higher = larger tumour
  T/C: 70 % of control
endpoint: mean tumor weight, dose: 40.0 mg/kg/injection, schedule: Q01DX011 (ip), vehicle: saline, higher = larger tumour
  T/C: 42 % of control
[1]
  T/C: 105 % of control
[2]
  T/C: 101 % of control

## CC1C[N-]CC(C)C1.CC1C[N-]CC(C)C1.CC1C[N-]CC(C)C1.CC1C[N-]CC(C)C1.[Cl][Rh][Cl] (stereo not drawn)
endpoint: median survival time, dose: 1.5 mg/kg/injection, schedule: Q01DX009 (ip), vehicle: saline, higher = longer survival
  T/C: 104 % of control
endpoint: median survival time, dose: 3.0 mg/kg/injection, schedule: Q01DX009 (ip), vehicle: saline, higher = longer survival
  T/C: 114 % of control
endpoint: median survival time, dose: 6.0 mg/kg/injection, schedule: Q01DX009 (ip), vehicle: saline, higher = longer survival
  T/C: 105 % of control

From PubChem BioAssay AID270 (DTP/NCI, 2004)
